The record followed here is ChEMBL document CHEMBL5055683, “Synthetic Sansanmycin Analogues as Potent Mycobacterium tuberculosis Translocase I Inhibitors” (J Med Chem, 2021).

Assay [1] concerns Mycobacterium tuberculosis H37Rv. The experiment in a line: Antimycobacterial activity against Mycobacterium tuberculosis H37Rv assessed as reduction in bacterial growth incubated for 5 days by resazurin assay. The format is functional. The note with it: 120 h, time 5 day.
Assay [2] has the same test system. The experiment in a line: Antimycobacterial activity against Mycobacterium tuberculosis H37Rv infected in human THP-1 macrophages assessed as reduction in microbial growth incubated for 72 hrs. The format is functional.
Assay [3] in a line: Inhibition of Mycobacterium tuberculosis MurX using UDP-MurNAc-dansylpentapeptide as substrate by fluorescence assay.
Assay [4] can be described thus: Antimycobacterial activity against Mycobacterium abscessus subsp. abscessus assessed as reduction in bacterial growth measured every 1 hr for 16 to 20 hrs. To be noted: Mycobacteroides abscessus; time 16-20 hrs. In kind it is functional.
In assay [5] the test system is Mycobacterium tuberculosis. The experiment in a line: Bacteriostatic activity against Mycobacterium tuberculosis mc2 6230 at 10 times MIC after 28 days by time-kill kinetics method. The format is functional, organism-based. The note with it: time 28.0 day.
Assay [6] deals with Mycobacteroides abscessus. The experiment in a line: Antimycobacterial activity against Mycobacterium abscessus RA 16 assessed as reduction in bacterial growth measured every 1 hr for 16 to 20 hrs. The format is functional. To be noted: time 16-20 hrs.
In assay [7] the test system is Bacillus subtilis. The experiment in a line: Antibacterial activity against Bacillus subtilis 168 assessed as reduction in bacterial growth measured every 1 hr for 16 to 20 hrs. The format is functional. To be noted: time 16-20 hrs.
Assay [8] deals with Mycobacterium marinum. The experiment in a line: Antimycobacterial activity against Mycobacterium marinum infected in zebrafish assessed as reduction in bacterial burden at 100 uM after 3 days post infection by microscopic analysis. In kind it is functional, organism-based. The note with it: time 3.0 day.
Assay [9] concerns Mycolicibacterium fortuitum. The experiment in a line: Antimycobacterial activity against Mycobacterium fortuitum RA 17 assessed as reduction in bacterial growth measured every 1 hr for 16 to 20 hrs. To be noted: time 16-20 hrs. The format is functional.
The test system of assay [10] is Enterococcus faecium. The experiment in a line: Antibacterial activity against Enterococcus faecium ATCC 6569 assessed as reduction in bacterial growth measured every 1 hr for 16 to 20 hrs. In kind it is functional. The note with it: time 16-20 hrs.
Assay [11] has as its system Staphylococcus aureus. The experiment in a line: Antibacterial activity against Staphylococcus aureus ATCC 29213 assessed as reduction in bacterial growth measured every 1 hr for 16 to 20 hrs. The format is functional. The note with it: time 16-20 hrs.
Assay [12] has as its system Escherichia coli. The experiment in a line: Antibacterial activity against Escherichia coli BW25113 assessed as reduction in bacterial growth measured every 1 hr for 16 to 20 hrs. In kind it is functional. The note with it: time 16-20 hrs.
For assay [13], the system named is Mycobacterium avium. The experiment in a line: Antimycobacterial activity against Mycobacterium avium CA 6 assessed as reduction in bacterial growth measured every 1 hr for 16 to 20 hrs. In kind it is functional. The note with it: time 16-20 hrs.
Assay [14] deals with Pseudomonas aeruginosa. The experiment in a line: Antibacterial activity against Pseudomonas aeruginosa ATCC 27853 assessed as reduction in bacterial growth measured every 1 hr for 16 to 20 hrs. In kind it is functional. To be noted: time 16-20 hrs.
Assay [15] has as its system Mycobacterium tuberculosis. The experiment in a line: Antimycobacterial activity against Mycobacterium tuberculosis mc2 6230 assessed as reduction in bacterial growth incubated for 10 days by time-kill kinetics method. The format is functional. To be noted: mc2 6230, 240 h, time 10 day.
Assay [16] relates to Staphylococcus epidermidis. The experiment in a line: Antibacterial activity against Staphylococcus epidermidis assessed as reduction in bacterial growth measured every 1 hr for 16 to 20 hrs. In kind it is functional. The note with it: time 16-20 hrs.
For assay [17], the system named is Mycolicibacterium fortuitum. The experiment in a line: Antimycobacterial activity against Mycobacterium fortuitum PN assessed as reduction in bacterial growth measured every 1 hr for 16 to 20 hrs. In kind it is functional. To be noted: time 16-20 hrs.
In assay [18] the test system is Mycobacterium marinum. The experiment in a line: Antimycobacterial activity against Mycobacterium marinum infected in zebrafish assessed as reduction in bacterial burden at 100 uM after 5 days post infection by microscopic analysis. The format is functional, organism-based. To be noted: time 5.0 day.

In brackets after ≈: the same amount, converted by molar mass. Activity calls are given as the source filed them. The rule behind the calls is not given here. Some results are limits rather than exact numbers.

In the case of `C[C@@H]([C@H](NC(=O)[C@H](Cc1ccc2ccccc2c1)NC(=O)N[C@@H](Cc1c[nH]c2ccccc12)C(=O)O)C(=O)NC[C@H]1C[C@@H](O)[C@H](n2ccc(=O)[nH]c2=O)O1)N(C)C(=O)CN`, the MIC50 stood at 0.18 µM (≈ 0.149 µg/mL) in assay [1] and 4.3 µM in assay [2].
Regarding `CCCCCCCCCCCCOC(=O)[C@H](Cc1c[nH]c2ccccc12)NC(=O)N[C@@H](CC1CCCCC1)C(=O)N[C@H](C(=O)NC[C@H]1C[C@@H](O)[C@H](n2ccc(=O)[nH]c2=O)O1)[C@H](C)N(C)C(=O)CN`, in assay [1], the MIC50 is 0.142 µM (≈ 0.135 µg/mL).
For `C[C@@H]([C@H](NC(=O)[C@H](CC1CCCCC1)NC(=O)N[C@@H](Cc1c[nH]c2ccccc12)C(=O)OCc1ccccc1)C(=O)NC[C@H]1C[C@@H](O)[C@H](n2ccc(=O)[nH]c2=O)O1)N(C)C(=O)CN`, the MIC50 was determined as 0.0085 µM (≈ 0.00741 µg/mL) in assay [1] and 11.3 µM in [2]. Further, the midpoint of inhibition in assay [3], the IC50, lay at 614 nM.
For the compound `CCCCCCNC(=O)[C@H](Cc1c[nH]c2ccccc12)NC(=O)N[C@@H](CC1CCCCC1)C(=O)N[C@H](C(=O)NC[C@H]1C[C@@H](O)[C@H](n2ccc(=O)[nH]c2=O)O1)[C@H](C)N(C)C(=O)CN`, the MIC50 in [1] was 0.124 µM (≈ 0.107 µg/mL); in assay [2] it was above 100 µM. The same compound displayed an IC50 in assay [3] of 75 nM.
As for `CCCCCCCCCCCCOC(=O)[C@H](Cc1c[nH]c2ccccc12)NC(=O)N[C@@H](Cc1ccc2ccccc2c1)C(=O)N[C@H](C(=O)NC[C@H]1C[C@@H](O)[C@H](n2ccc(=O)[nH]c2=O)O1)[C@H](C)N(C)C(=O)CN`, the MIC50 in assay [1] was found to be 0.192 µM (≈ 0.191 µg/mL).
Turning to `C[C@@H]([C@H](NC(=O)[C@H](CC1CCCCC1)NC(=O)N[C@@H](Cc1c[nH]c2ccccc12)C(=O)NCc1ccccc1)C(=O)NC[C@H]1C[C@@H](O)[C@H](n2ccc(=O)[nH]c2=O)O1)N(C)C(=O)CN`, the values for the MIC50 in [1] and in [2] were 0.0454 µM (≈ 0.0395 µg/mL) and 4.6 µM, respectively. Moreover, in assay [3], the 50% inhibitory concentration (IC50) turned out to be 66 nM.
Take `C[C@@H]([C@H](NC(=O)[C@H](Cc1ccc2ccccc2c1)NC(=O)N[C@@H](Cc1c[nH]c2ccccc12)C(=O)NCC(C)(C)C)C(=O)NC[C@H]1C[C@@H](O)[C@H](n2ccc(=O)[nH]c2=O)O1)N(C)C(=O)CN`: the MIC in [4] was 26 µM (≈ 23.3 µg/mL); in assay [6], 13 µM (≈ 11.6 µg/mL); in assay [7], 132 µM (≈ 118 µg/mL); in assay [9] it was 1 µM (≈ 0.895 µg/mL); in assay [10], above 132 µM; in assay [11], above 132 µM. The MIC is 132 µM (≈ 118 µg/mL) in assay [12]; 1 µM (≈ 0.895 µg/mL) in assay [13]; above 132 µM in assay [14]; 0.181 µM (≈ 0.162 µg/mL) in [15]; above 132 µM in assay [16]; 2 µM (≈ 1.79 µg/mL) in [17]. The outcome in assay [5] and in assay [8] was Active. Also, the MIC50 in assay [1] stood at 0.0419 µM (≈ 0.0375 µg/mL); in assay [2], 1.2 µM. Besides, the IC50 in assay [3] came to 20 nM.
For the compound `C[C@@H]([C@H](NC(=O)[C@H](CC1CCCCC1)NC(=O)N[C@@H](Cc1c[nH]c2ccccc12)C(=O)O)C(=O)NC[C@H]1C[C@@H](O)[C@H](n2ccc(=O)[nH]c2=O)O1)N(C)C(=O)CN`, the MIC50 in assay [1] was found to be 0.08 µM (≈ 0.0625 µg/mL); in assay [2], 1.6 µM. This compound also gave an IC50 in assay [3] of 54 nM.
Take `COC(=O)[C@H](Cc1c[nH]c2ccccc12)NC(=O)N[C@@H](CC1CCCCC1)C(=O)N[C@H](C(=O)NC[C@H]1C[C@@H](O)[C@H](n2ccc(=O)[nH]c2=O)O1)[C@H](C)N(C)C(=O)CN`: the MIC50 in assay [1] was 0.0397 µM (≈ 0.0316 µg/mL).
In the case of `C[C@@H]([C@H](NC(=O)[C@H](Cc1ccc2ccccc2c1)NC(=O)N[C@@H](Cc1c[nH]c2ccccc12)C(=O)NCc1ccccc1)C(=O)NC[C@H]1C[C@@H](O)[C@H](n2ccc(=O)[nH]c2=O)O1)N(C)C(=O)CN`, the MIC50 in [1] turned out to be 0.0741 µM (≈ 0.0678 µg/mL); in assay [2] it was 1.9 µM. The compound further gave an IC50 in assay [3] of 34 nM.
Regarding `C[C@@H]([C@H](NC(=O)[C@H](CC1CCCCC1)NC(=O)N[C@@H](Cc1c[nH]c2ccccc12)C(=O)OCC(C)(C)C)C(=O)NC[C@H]1C[C@@H](O)[C@H](n2ccc(=O)[nH]c2=O)O1)N(C)C(=O)CN`, the MIC50 stood at 0.0059 µM (≈ 0.00503 µg/mL) in [1] and 12.5 µM in assay [2]. The IC50 in [3] worked out at 712 nM.
The matching figures for `CCCCCCNC(=O)[C@H](Cc1c[nH]c2ccccc12)NC(=O)N[C@@H](Cc1ccc2ccccc2c1)C(=O)N[C@H](C(=O)NC[C@H]1C[C@@H](O)[C@H](n2ccc(=O)[nH]c2=O)O1)[C@H](C)N(C)C(=O)CN`: 0.0925 µM (≈ 0.0841 µg/mL), 2.1 µM and 49 nM.
Consider `C[C@@H]([C@H](NC(=O)[C@H](CC1CCCCC1)NC(=O)N[C@@H](Cc1c[nH]c2ccccc12)C(=O)NCC(C)(C)C)C(=O)NC[C@H]1C[C@@H](O)[C@H](n2ccc(=O)[nH]c2=O)O1)N(C)C(=O)CN`, for which the MIC is 23 µM (≈ 19.6 µg/mL) in assay [4]; 23 µM (≈ 19.6 µg/mL) in assay [6]; above 132 µM in assay [7]; 1 µM (≈ 0.851 µg/mL) in [9]; above 132 µM in [10]; above 132 µM in assay [11]. The MIC was 88 µM (≈ 74.9 µg/mL) in [12]; 1 µM (≈ 0.851 µg/mL) in assay [13]; above 132 µM in assay [14]; 0.313 µM (≈ 0.266 µg/mL) in assay [15]; above 132 µM in [16]; 1 µM (≈ 0.851 µg/mL) in assay [17]. The outcome in assay [5] was inactive. In addition, the MIC50 in assay [1] turned out to be 0.0225 µM (≈ 0.0191 µg/mL); in assay [2] it was 6.7 µM. For the same compound, half-maximal inhibition in assay [3] (IC50) was put at 60 nM.
As for `C[C@@H]([C@H](NC(=O)[C@H](Cc1ccc2ccccc2c1)NC(=O)N[C@@H](Cc1c[nH]c2ccccc12)C(=O)OCC(C)(C)C)C(=O)NC[C@H]1C[C@@H](O)[C@H](n2ccc(=O)[nH]c2=O)O1)N(C)C(=O)CN`, the MIC50 came to 0.021 µM (≈ 0.0188 µg/mL) in assay [1] and 1.5 µM in assay [2]. Besides, the IC50 in assay [3] is 801 nM.
Turning to `COC(=O)[C@H](Cc1c[nH]c2ccccc12)NC(=O)N[C@@H](Cc1ccc2ccccc2c1)C(=O)N[C@H](C(=O)NC[C@H]1C[C@@H](O)[C@H](n2ccc(=O)[nH]c2=O)O1)[C@H](C)N(C)C(=O)CN`, the MIC50 in [1] is 0.0652 µM (≈ 0.0548 µg/mL).
As for `C[C@@H]([C@H](NC(=O)[C@H](Cc1ccc2ccccc2c1)NC(=O)N[C@@H](Cc1c[nH]c2ccccc12)C(=O)OCc1ccccc1)C(=O)NC[C@H]1C[C@@H](O)[C@H](n2ccc(=O)[nH]c2=O)O1)N(C)C(=O)CN`, the MIC50 in assay [1] amounted to 0.0132 µM (≈ 0.0121 µg/mL); in assay [2], 5.1 µM. Half-maximal inhibition in assay [3] (IC50) was put at 1380 nM.
Take `CO[C@H]1/C=C/O[C@@]2(C)Oc3c(C)c(O)c4c(O)c(c(/C=N/N5CCN(C)CC5)c(O)c4c3C2=O)NC(=O)/C(C)=C\C=C\[C@H](C)[C@H](O)[C@@H](C)[C@@H](O)[C@@H](C)[C@H](OC(C)=O)[C@@H]1C` [RIFAMPIN]: the MIC50 in assay [1] was 0.00153 µM (≈ 0.00126 µg/mL). Further, the result in assay [18] was Active.
With `CCCCCCOC(=O)[C@H](Cc1c[nH]c2ccccc12)NC(=O)N[C@@H](Cc1ccc2ccccc2c1)C(=O)N[C@H](C(=O)NC[C@H]1C[C@@H](O)[C@H](n2ccc(=O)[nH]c2=O)O1)[C@H](C)N(C)C(=O)CN`, the MIC50 is 0.0269 µM (≈ 0.0245 µg/mL) in [1] and 0.5 µM in assay [2]. In assay [3], this compound showed an IC50 of 2670 nM.
The matching figures for `CCCCCCOC(=O)[C@H](Cc1c[nH]c2ccccc12)NC(=O)N[C@@H](CC1CCCCC1)C(=O)N[C@H](C(=O)NC[C@H]1C[C@@H](O)[C@H](n2ccc(=O)[nH]c2=O)O1)[C@H](C)N(C)C(=O)CN`: 0.0172 µM (≈ 0.0149 µg/mL), 9.5 µM and 1390 nM.

For orientation: IC50 means the concentration needed to halve the response being measured. A higher IC50 goes with weaker potency. The term MIC denotes the lowest concentration found to suppress growth.
